Like-named read-outs stand apart in the source and are kept apart here.
Assays:
[1] = test system: Key Grass and Sedge Weeds as well as Grass Crops; experiment: Post-emergent Test II herbicidal activity (Table 6); format: in vivo; conditions: post-emergence, 336 h; for pest or weed control at 70 g/ha: application rate 70 g ai/ha; for pest or weed control at 140 g/ha: application rate 140 g ai/ha
Method in brief: (§1)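 Compounds, dissolved in 97:3 acetone/DMSO and diluted into an aqueous carrier containing crop oil concentrate and Triton X-155, are applied over the top of young plants at 187 L/ha. Injury is scored visually at 14 d, 0% meaning no effect and 100% complete kill.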

[2] = test system: Key Broadleaf Weed and Crop Species; experiment: Post-emergent Test II herbicidal activity (Table 5); format: in vivo; conditions: post-emergence, 336 h, post-emergent, 14 days after application; for pest or weed control at 70 g/ha: 70 g ai/ha; for pest or weed control at 140 g/ha: 140 g ai/ha
Method in brief: as §1

[3] = CYPES: yellow nutsedge (Cyperus esculentus), read-out: Visual Growth Reduction (%) 14 Days After Application, CYPES
[4] = DIGSA: crabgrass (Digitaria sanguinalis), read-out: Visual Growth Reduction (%) 14 Days After Application, DIGSA
[5] = ECHCG: barnyardgrass (Echinochloa crus-galli), read-out: Visual Growth Reduction (%) 14 Days After Application, ECHCG
[6] = ORYSA: rice (Oryza sativa), read-out: Visual Growth Reduction (%) 14 Days After Application, ORYSA
[7] = SETFA: giant foxtail (Setaria faberi), read-out: Visual Growth Reduction (%) 14 Days After Application, SETFA
[8] = SORVU: grain sorghum (Sorghum vulgare), read-out: Visual Growth Reduction (%) 14 Days After Application, SORVU
[9] = TRZSS (wheat, Triticum aestivum), read-out: Visual Growth Reduction (%) 14 Days After Application, TRZSS
[10] = ZEAMX: maize, corn (Zea mays), read-out: Visual Growth Reduction (%) 14 Days After Application, ZEAMX
[11] = ABUTH: velvetleaf (Abutilon theophrasti), read-out: Visual Growth Reduction (%) 14 Days After Application ABUTH
[12] = AMARE: redroot pigweed (Amaranthus retroflexus), read-out: Visual Growth Reduction (%) 14 Days After Application AMARE
[13] = BRSNN: oilseed-rape, canola (Brassica napus), read-out: Visual Growth Reduction (%) 14 Days After Application BRSNN
[14] = CHEAL: lambsquarters (Chenopodium album), read-out: Visual Growth Reduction (%) 14 Days After Application CHEAL
[15] = EPHHL: wild poinsettia (Euphorbia heterophylla), read-out: Visual Growth Reduction (%) 14 Days After Application EPHHL
[16] = HELAN: sunflower (Helianthus annuus), read-out: Visual Growth Reduction (%) 14 Days After Application HELAN
[17] = VIOTR: wild pansy (Viola tricolor), read-out: Visual Growth Reduction (%) 14 Days After Application VIOTR
[18] = Triticum aestivum, TRZSS (wheat), read-out: Visual Growth Reduction (%) 14 Days After Application, TRZSS

Structure (SMILES) | pest or weed control at 70 g/ha [1, 3] | pest or weed control at 140 g/ha [1, 3] | pest or weed control at 70 g/ha [1, 4] | pest or weed control at 140 g/ha [1, 4] | pest or weed control at 70 g/ha [1, 5] | pest or weed control at 140 g/ha [1, 5] | pest or weed control at 70 g/ha [1, 6] | pest or weed control at 140 g/ha [1, 6] | pest or weed control at 70 g/ha [1, 7] | pest or weed control at 140 g/ha [1, 7] | pest or weed control at 70 g/ha [1, 8] | pest or weed control at 140 g/ha [1, 8] | pest or weed control at 70 g/ha [1, 10] | pest or weed control at 140 g/ha [1, 10] | pest or weed control at 70 g/ha [2, 11] | pest or weed control at 140 g/ha [2, 11] | pest or weed control at 70 g/ha [2, 12] | pest or weed control at 140 g/ha [2, 12] | pest or weed control at 70 g/ha [2, 13] | pest or weed control at 140 g/ha [2, 13] | other results
Nc1cc(-c2c(F)cc(Br)c(F)c2F)nc(C(=O)O)c1Cl [Compound 162, 4-amino-6-(4-bromo-2,3,6-trifluorophenyl)-3-chloropicolinic acid] | 95 to 100% | 45 to 59% | 75 to 84% | 75 to 84% | 85 to 94% | 75 to 84% | 45 to 59% | 45 to 59% | 85 to 94% | 75 to 84% | 85 to 94% | 95 to 100% | 60 to 74% | 75 to 84% | 85 to 94% | 85 to 94% | 95 to 100% | 95 to 100% | 95 to 100% | 95 to 100% | pest or weed control at 70 g/ha [1, 9]: 45 to 59%; pest or weed control at 140 g/ha [1, 9]: 45 to 59%; pest or weed control at 70 g/ha [2, 14]: 95 to 100%; pest or weed control at 140 g/ha [2, 14]: 95 to 100%; pest or weed control at 70 g/ha [2, 15]: 95 to 100%; pest or weed control at 140 g/ha [2, 15]: 95 to 100%; pest or weed control at 70 g/ha [2, 16]: 85 to 94%; pest or weed control at 140 g/ha [2, 16]: 85 to 94%; pest or weed control at 70 g/ha [2, 17]: 95 to 100%; pest or weed control at 140 g/ha [2, 17]: 95 to 100%
COC(=O)c1nc(-c2ccc(Br)c(F)c2)cc(N)c1Cl [Compound 115, methyl 4-amino-6-(4-bromo-3-fluorophenyl)-3-chloropicolinate] | 95 to 100% | 95 to 100% | 85 to 94% | 85 to 94% | 85 to 94% | 85 to 94% | 0 to 29% | 0 to 29% | 0 to 29% | 0 to 29% | 85 to 94% | 95 to 100% | 0 to 29% | 0 to 29% | 85 to 94% | 85 to 94% | 95 to 100% | 95 to 100% | 60 to 74% | 75 to 84% | pest or weed control at 70 g/ha [1, 18]: 0 to 29%; pest or weed control at 140 g/ha [1, 18]: 0 to 29%; pest or weed control at 70 g/ha [2, 14]: 95 to 100%; pest or weed control at 140 g/ha [2, 14]: 95 to 100%; pest or weed control at 70 g/ha [2, 15]: 95 to 100%; pest or weed control at 140 g/ha [2, 15]: 95 to 100%; pest or weed control at 70 g/ha [2, 16]: 85 to 94%; pest or weed control at 140 g/ha [2, 16]: 95 to 100%; pest or weed control at 70 g/ha [2, 17]: 95 to 100%; pest or weed control at 140 g/ha [2, 17]: 95 to 100%

Source: patent publication US9113629B2, “4-amino-6-(4-substituted-phenyl)-picolinates and 6-amino-2-(4-substituted-phenyl)-pyrimidine-4-carboxylates and their use as herbicides” (DOW AGROSCIENCES LLC, priority 2013, dated 2015)
